Results published in patent US11149052B2, “2′3′-cyclic dinucleotides” (Institute of Organic Chemistry and Biochemistry, ASCR, V.V.I, priority 2018, dated 2021).
pEC50: −log10 of the molar value.

Key:
[1] = molecular target: T1, WT STING (truncated human WT STING protein) (Homo sapiens, UniProt Q86WV6, H232R); assay: Differential Scanning Fluorimetry with WT STING; assay type: binding; conditions: thermal shift vs apoprotein; 150 μM CDN; 0.1 mg/ml STING protein; SYPRO Orange; read-out: DSF ΔTm (° C.) WT STING
T1 construct: truncated human WT STING or AQ STING (amino acid residues 140-343); 8xHis (N, cleaved yes); SUMO (N, cleaved yes); made in house; host or cells: E. coli Rosetta-gami B (DE3)
Procedure: (§1) Purified PCR products were cleaved with restriction enzymes BamHI (cat. #R0136S, NEB, Ipswich, USA) and NotI (cat. #R0189S, NEB, Ipswich, USA) and cloned into the pSUMO vector linearized with the identical enzymes.
(§2) DNase I (cat. #D5025, Sigma Aldrich, Czech Republic) and RNase A (cat. #R6513, Sigma Aldrich, Czech Republic) were added (final concentration […]) together with MgCl2 (final concentration 5 mmol·l^−1) to the homogenate and bacteria were lysed using French Press G-M™ High-Pressure Cell Press Homogenizer (1500 psi, 3 cycles). […] The resin was poured into a chromatography column, washed with 50 ml buffer A (50 mmol·l^−1 TrisCl (pH 8.0), 800 mmol·l^−1 NaCl, 3 mmol·l^−1β-mercaptoethanol; 10% glycerol; 20 mmol·l^−1 imidazole) and 8-His-SUMO tagged STING proteins were eluted with 15 ml buffer A containing 300 mmol·l^−1 imidazole. […] Proteins were concentrated with Amicon® Ultra-15 10 K device (cat. #UFC901008, Merck Millipore, Billerica, USA) and flash frozen in liquid N2.
(§3) Differential Scanning Fluorimetry with WT STING and AQ STING
(§4) 20 μL solutions of the reaction mixtures were pipetted in triplicates into 96 well optical reaction plates and thermal denaturation of samples were performed on real time PCR cycler (LightCycler® 480 Instrument II—Roche, Base^1, Switzerland). The first derivative of the thermal denaturation curves was performed to calculate denaturing temperatures of STING-CDN complexes and STING apoproteins. The thermal shift for each CDN was calculated by subtracting the average denaturing temperature of STING apoprotein from the average denaturing temperature of STING CDN complex.

[2] = molecular target: T2, AQ STING (truncated human STING G230A-R293Q allelic form) (Homo sapiens, UniProt Q86WV6, G230A/H232R/R293Q); assay: Differential Scanning Fluorimetry with AQ STING; assay type: binding; conditions: thermal shift vs apoprotein; 150 μM CDN; 0.1 mg/ml STING protein; SYPRO Orange; read-out: DSF ΔTm (° C.) AQ STING
T2 construct: truncated human WT STING or AQ STING (amino acid residues 140-343); 8xHis (N, cleaved yes); SUMO (N, cleaved yes); made in house; host or cells: E. coli Rosetta-gami B (DE3)
Procedure: as §1, §2, §3, §4

[3] = molecular target: human wild type STING (WT STING) (Homo sapiens, UniProt Q86WV6, H232R); assay: Digitonin assay using 293T wtSTING-FL reporter cells (ISRE firefly luciferase reporter); assay type: cell-based; conditions: 293T wtSTING-FL cells; 30 min in Digitonin buffer, then 5 hours; luciferase read-out; 8-point dose-response curve; read-out: Digitonin assay EC50 (μmol · l^−1) WT STING
Excerpt: Two complementary oligonucleotides of the sequence […] […] […] […] […] The oligonucleotides were mixed in equal molar amounts, hybridized, and cleaved by restriction endonucleases HindIII (cat. #. R0104S, NEB, Ipswich, USA) and BglII (cat. #R0144S, NEB, Ipswich, USA). Ultimately, they were ligated into plasmid pGL4.27 (cat. #E6651, Promega, Madison, USA) linearized with the same enzymes. As result the sequence with four ISRE sites was placed upstream of the minimum promoter of firefly luciferase reporter gene.
After 5 minutes incubation at room temperature (RT), 250 μL of the mixture was added dropwise to the cells in one well.
Transfected cells were seeded onto poly-D-lysine coated six well plates at density 50,000 cells per 1 cm^2 in DMEM medium with high glucose containing 10% heat inactivated FBS, 30 μg/mL blasticidin (cat. #ant-bl-05, InvivoGen, San Diego, USA), 0.06 mg/ml Penicillin G and 0.1 mg/ml Streptomycin Sulfate (both cat. #. L0018, Biowest, Riverside, USA). The medium was replenished every 3-4 days until visible colonies of cells resistant to blasticidin were formed.
Blasticidin resistant cells stably expressing WT STING were further transfected with […] plasmid following the same procedure as described above. […] Homogeneous culture of stably double transfected cells was prepared by limiting dilution of cells in 96 well plates and wells with cells were selected that originated from a single cell.
The medium was removed next day and three fold serial dilutions of compounds in Digitonin buffer containing 50 mmol·l^−1 HEPES (cat. #H3375, Sigma Aldrich, Czech Republic) pH 7.0, 100 mmol·l^−1 KCl, 3 mmol·l^−1 MgCl2, 0.1 mmol·l^−1 DTT (cat. #D0632, Sigma Aldrich, Czech Republic), 85 mmol·l^−1 Sucrose (cat. #S7903, Sigma Aldrich, Czech Republic), 0.2% BSA (cat. #A2153, Sigma Aldrich, Czech Republic), 1 mmol·l^−1 ATP (cat. #A1852, Sigma Aldrich, Czech Republic), 0.1 mmol·l^−1 GTP (cat. #G8877, Sigma Aldrich, Czech Republic), and 10 μg/mL Digitonin A (cat. #D141, Sigma Aldrich, Czech Republic) were added to the cells. The buffer was removed after 30 minutes incubation at 37° C. with 5% CO2, the cells were washed once with 100 μl of cultivation medium, and 100 IA of medium was added to each well. The plates with cells were incubated for 5 hours at 37° C. with 5% CO2, 50 μl of the medium was removed and 30 μl of ONE-Glo™ Luciferase Assay System reagent (cat. #E6120, Promega, Madison, USA) was added to each well. Luminesce was read on Synergy H1 (Biotek, Winooski, USA).

T2 sequence (Q86WV6 140-343 G230A/H232R/R293Q): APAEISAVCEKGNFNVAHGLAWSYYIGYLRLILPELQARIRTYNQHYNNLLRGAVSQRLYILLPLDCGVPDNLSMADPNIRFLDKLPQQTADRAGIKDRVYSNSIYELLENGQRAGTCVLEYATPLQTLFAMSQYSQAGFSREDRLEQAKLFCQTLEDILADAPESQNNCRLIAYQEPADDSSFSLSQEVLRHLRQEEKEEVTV
T1 sequence (Q86WV6 140-343 H232R): as the sequence (Q86WV6 140-343 G230A/H232R/R293Q) above, with A91G, Q154R counted along it
human wild type STING (WT STING), sequence (Q86WV6 whole entry H232R): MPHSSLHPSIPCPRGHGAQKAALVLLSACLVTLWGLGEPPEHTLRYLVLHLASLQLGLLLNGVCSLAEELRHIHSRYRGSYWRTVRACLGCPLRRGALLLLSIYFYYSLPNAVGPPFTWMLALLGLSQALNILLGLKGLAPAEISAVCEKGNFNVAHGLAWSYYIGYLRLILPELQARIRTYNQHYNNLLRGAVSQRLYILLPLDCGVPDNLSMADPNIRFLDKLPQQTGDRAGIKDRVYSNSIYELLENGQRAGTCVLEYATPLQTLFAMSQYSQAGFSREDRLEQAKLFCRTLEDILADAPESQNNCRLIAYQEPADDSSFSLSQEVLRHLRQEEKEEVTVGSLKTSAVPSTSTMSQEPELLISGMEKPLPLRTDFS

Structure (SMILES) | ΔTm at 150 µM [1] | ΔTm at 150 µM [2] | pEC50 [3]
Nc1ncnc2c1ncn2[C@@H]1O[C@@H]2COP(=O)(O)O[C@@H]3[C@H](O)[C@@H](COP(=O)(O)CO[C@H]2[C@@H]1O)O[C@H]3n1cnc2c(N)ncnc21 [Example 11, (1R,6R,8R,9S,10S,16R,18R,19R)-8,18-bis(6-amino-9H-purin-9-yl)-3,9,13,19-tetrahydroxy-2,4,7,11,14,17-hexaoxa-3λ^5,13λ^5-diphosphatricyclo[14.2.1.0^6,^10]nonadecane-3,13-dione] | 2.3 °C | 9.1 °C | 5.60
Nc1ncnc2c1ncn2[C@@H]1O[C@@H]2COP(=O)(O)CO[C@@H]3[C@@H](O)[C@@H](COP(=O)(O)CO[C@@H]2[C@H]1O)O[C@H]3n1cnc2c(N)ncnc21 [Example 12, (1R,7R,9R,10R,11R,17R,19R,20S)-9,19-bis(6-amino-9H-purin-9-yl)-4,10,14,20-tetrahydroxy-2,5,8,12,15,18-hexaoxa-4λ^5,14λ^5-diphosphatricyclo[15.2.1.0^7,^11]icosane-4,14-dione] | 0 °C | 0 °C | < 4.30
Nc1ncnc2c1ncn2[C@@H]1O[C@@H]2COP(=O)(O)CO[C@H]3[C@H](O)[C@@H](COP(=O)(O)CO[C@H]2[C@@H]1O)O[C@H]3n1cnc2c(N)ncnc21 [Example 13, (1S,7R,9R,10S,11S,17R,19R,20R)-9,19-bis(6-amino-9H-purin-9-yl)-4,10,14,20-tetrahydroxy-2,5,8,12,15,18-hexaoxa-4λ^5,14λ^5-diphosphatricyclo[15.2.1.0^7,^11]icosane-4,14-dione] | 0 °C | 0.2 °C | < 4.30
Nc1nc2c(ncn2[C@@H]2O[C@@H]3COP(=O)(O)O[C@@H]4[C@H](O)[C@@H](COP(=O)(O)CO[C@H]3[C@H]2F)O[C@H]4n2cnc3c(N)ncnc32)c(=O)[nH]1 [Example 14, (1R,6R,8R,9R,10R,16R,18R,19R)-8-(2-amino-6-oxo-6,9-dihydro-1H-purin-9-yl)-18-(6-amino-9H-purin-9-yl)-9-fluoro-3,13,19-trihydroxy-2,4,7,11,14,17-hexaoxa-3λ^5,13λ^5-diphosphatricyclo[14.2.1.0^6,^10]nonadecane-3,13-dione] | 6.7 °C | 14.2 °C | 7.10
Nc1nc2c(ncn2[C@@H]2O[C@@H]3COP(=O)(O)CO[C@H]4[C@H](O)[C@H](n5cnc6c(N)ncnc65)O[C@@H]4COP(=O)(O)O[C@@H]2[C@@H]3O)c(=O)[nH]1 [Example 16, (1R,6R,8R,9S,10S,16R,18R,19R)-18-(2-amino-6-oxo-6,9-dihydro-1H-purin-9-yl)-8-(6-amino-9H-purin-9-yl)-3,9,13,19-tetrahydroxy-2,4,7,11,14,17-hexaoxa-3λ^5,13λ^5-diphosphatricyclo[14.2.1.0^6,^10]nonadecane-3,13-dione] | 15.8 °C | 18.7 °C | 7.40
Nc1nc2c(ncn2[C@@H]2O[C@@H]3COP(=O)(O)CO[C@H]4[C@@H](F)[C@H](n5cnc6c(N)ncnc65)O[C@@H]4COP(=O)(O)O[C@@H]2[C@@H]3F)c(=O)[nH]1 [Example 17, (1S,6R,8R,9R,10R,16R,18R,19R)-18-(2-amino-6-oxo-6,9-dihydro-1H-purin-9-yl)-8-(6-amino-9H-purin-9-yl)-9,19-difluoro-3,13-dihydroxy-2,4,7,11,14,17-hexaoxa-3λ^5,13λ^5-diphosphatricyclo[14.2.1.0^6,^10]nonadecane-3,13-dione] | 21.7 °C | 27.3 °C | 7.70
Nc1nc2c(ncn2[C@@H]2O[C@@H]3COP(=O)(O)CO[C@H]4[C@@H](F)[C@H](n5cnc6c(N)ncnc65)O[C@@H]4COP(=O)(O)O[C@@H]2C3)c(=O)[nH]1 [Example 18, (1R,6R,8R,9R,10R,16S,18R)-18-(2-amino-6-oxo-6,9-dihydro-1H-purin-9-yl)-8-(6-amino-9H-purin-9-yl)-9-fluoro-3,13-dihydroxy-2,4,7,11,14,17-hexaoxa-3λ^5,13λ^5-diphosphatricyclo[14.2.1.0^6,^10]nonadecane-3,13-dione] | 19 °C | 23.9 °C | 7.70

Continued by rising pEC50 [3], values first:

ΔTm at 150 µM [1] | ΔTm at 150 µM [2] | pEC50 [3] | Structure (SMILES)
20.9 °C | 27 °C | 7.70 | Nc1nc2c(ncn2[C@@H]2O[C@@H]3COP(=O)(O)CO[C@H]4[C@@H](F)[C@H](n5cnc6c(N)ncnc65)O[C@@H]4COP(=O)(O)O[C@@H]2[C@@H]3O)c(=O)[nH]1 [Example 10, (1R,6R,8R,9R,10R,16R,18R,19R)-18-(2-amino-6-oxo-6,9-dihydro-1H-purin-9-yl)-8-(6-amino-9H-purin-9-yl)-9-fluoro-3,13,19-trihydroxy-2,4,7,11,14,17-hexaoxa-3λ^5,13λ^5-diphosphatricyclo[14.2.1.0^6,^10]nonadecane-3,13-dione]
14.4 °C | 19.2 °C | 8.00 | Nc1nc2c(ncn2[C@@H]2O[C@@H]3COP(=O)(O)CO[C@H]4C[C@H](n5cnc6c(N)ncnc65)O[C@@H]4COP(=O)(O)O[C@@H]2[C@@H]3O)c(=O)[nH]1 [Example 15, (1R,6R,8R,10S,16R,18R,19R)-18-(2-amino-6-oxo-6,9-dihydro-1H-purin-9-yl)-8-(6-amino-9H-purin-9-yl)-3,13,19-trihydroxy-2,4,7,11,14,17-hexaoxa-3λ^5,13λ^5-diphosphatricyclo[14.2.1.0^6,^10]nonadecane-3,13-dione]
17.2 °C | 23.5 °C | 8.30 | Nc1nc2c(ncn2[C@@H]2O[C@@H]3COP(=O)(O)CO[C@H]4C[C@H](n5cnc6c(N)ncnc65)O[C@@H]4COP(=O)(O)O[C@@H]2[C@@H]3F)c(=O)[nH]1 [Example 20, (1S,6R,8R,10S,16R,18R,19R)-18-(2-amino-6-oxo-6,9-dihydro-1H-purin-9-yl)-8-(6-amino-9H-purin-9-yl)-19-fluoro-3,13-dihydroxy-2,4,7,11,14,17-hexaoxa-3λ^5,13λ^5-diphosphatricyclo[14.2.1.0^6,^10]nonadecane-3,13-dione]
18.2 °C | 25.1 °C | 8.70 | Nc1nc2c(ncn2[C@@H]2O[C@@H]3COP(=O)(O)CO[C@H]4[C@@H](O)[C@H](n5cnc6c(N)ncnc65)O[C@@H]4COP(=O)(O)O[C@@H]2[C@@H]3F)c(=O)[nH]1 [Example 19, (1S,6R,8R,9R,10S,16R,18R,19R)-18-(2-amino-6-oxo-6,9-dihydro-1H-purin-9-yl)-8-(6-amino-9H-purin-9-yl)-19-fluoro-3,9,13-trihydroxy-2,4,7,11,14,17-hexaoxa-3λ^5,13λ^5-diphosphatricyclo[14.2.1.0^6,^10]nonadecane-3,13-dione]
